The values that follow come from patent US20040022734A1, “Dihydroporphyrin derivatives and their uses” (priority 2000, published 2004).

In series [1] the test system is C6 cells. The series can be described thus: Intracellular localization and pharmacokinetics in C6 cells by fluorescent imaging. It counts as cell-based. The following applies: FIG. 3; for Incorporation at one hour of incubation (intracellular fluorescence): 1 hour. On the procedure:
So as to confirm the potential use of the mentioned compounds for the production of a photosensitive composition administrable to a living creature and useful as an agent adapted to give rise, under the influence of irradiation, to cytolysis or necrosis at least partially of at least one target region of the human or animal body, a visualization was conducted of the localization in vitro of the SIMO1 molecule, as well as the determination of the pharmacokinetics compared to m-THPC, by fluorescent imaging so as to confirm that the mentioned compounds were capable of penetrating the cells. Thus, C6 cells were seeded at a rate of 10^5 cells/ml on circular glass plates after trypsinization. After 24 hours, cells were incubated with SIMO1 (10 μg/ml) at 37° C. for 3 hours and then washed with PBS (pH 7.2). Fluorescence analysis of SIMO1 (emitting at 650 nm) was carried out after excitation of 450 nm to 480 nm with a 150 watt Xenon lamp by using a black and white video camera with very sensitive detection of photons (Kappa CF 8/4; Fischer Scientific S.A., France), connected to an optical microscope (Olympus BX 40, France) provided with an oil immersion objective magnifying 100 times.

Series [2] has as its system cellular tumor HT29 obtained initially from human colorectal adenocarcinoma. Nature of the series: In vivo phototoxicity: growth of HT29 tumor grafts in nude mice after injection and laser irradiation. The following applies: for Activity on tumor growth, SIMO1 versus m-THPC: 2 mg/kg intra-peritoneal, irradiation 6 hours and 12 hours after injection, FIG. 5. On the procedure: To establish these conclusions, the following procedure was used: Swiss male nude/nude mice aged 7 to 9 weeks (weight range 25-35 g) were obtained from Iffa-Credo (L'arbresle, France).
The test method is that of the cellular tumor HT29 obtained initially from human colorectal adenocarcinoma.
The tumor grafts were obtained as follows: nonnecrotic solid tumor tissues (diameter 1 to 2 cm) were removed immediately after death of the donor mouse and then mechanically crushed in 1 ml of a 0.9% saline solution. This solution (0.2 ml) was injected sub-cutaneously into the rear paw of each mouse. This tumor was used one week later, when its diameter was 18-20 mm. […] The wavelength was illumination was selected between 652-653 nm.
The light source was a diode laser at 652 nm.
The luminous density was maintained below 0.3 W.cm^−2, at doses at which the thermal effects are indetectable. A single irradiation was carried out and the time of exposure was calculated as a function of the diameter of the tumor to obtain an energy density of 300 J/cm^−2 at a predetermined constant light density.
Each day, the index of tumor growth was measured by using a slide foot, the principal orthogonal diameters being added and divided by a factor of 2.
A statistical characteristic of the growth index between treated and control mice (without light or SIMO1) was carried by using the Student test.

Series [3] is described as follows: In vivo spectrofluorimetric measurement of incorporation and retention in muscle, skin and tumor of mice grafted with HT-29. The following applies: 2 mg/kg. On the procedure:
For these tests, the following was the procedure: spectrofluorimetric measurements were carried out on mice grafted with HT-29 at different intervals of time after injection of 2 mg/kg^−1 of m-THPC or SIMO1. The tested times were 3, 6, 12, 24, 48 and 144 hours on mice.
The level of fluorescence were recorded in different tissues, namely the muscle, the skin and the tumor. The measurements were taken by using an optical fiber placed directly in contact with the tissues. At least four spectra per tissue and per mouse were recorded (at least five mice were used for each experimental condition). Muscle, skin and tumor were successively studied.
The emission spectra of fluorescence of untreated mice tissue were recorded at three separate times so as to estimate the intermouse variations. The values of fluorescent intensity mentioned in FIG. 6 correspond for each organ to the result of the difference between the value of fluorescence obtained in a treated mouse and the value of fluorescence recorded in the control group. The results of spectrofluorometric measurement in vivo were expressed in beats per second (arbitrary unit).

For series [4], the system named is C6 cells. The series can be described thus: Phototoxicity of SIMO1 on C6 cells (laser irradiation, MTT count). The format is cell-based. The following applies: 20 joules/cm^2 diode laser. On the procedure: C6 cells were cultured in flasks of 25 cm^2 (Polylabo, Strasbourg, France) in an RPMI medium supplemented with 10% (V/V) of fetal calf serum (FCS), 100 units of penicillin mL^−1, […] of streptomycin and 2 mM of glutamine.
The cells were replicated by dispersion culturing with 0.025% of trypsin in 0.02% ethylene-diaminotetracetic acid (EDTA) for a contact time of 2 minutes and returned to adhere at a dilution of 1:3, which maintain the cells in the exponential phase of growth. The cells were verified on a regular basis by contamination of the mycoplasms.
The cells thus cultivated were subjected to a photodynamic treatment. Aliquots (11 μl) of the photosensitizing solution SIMO1 were added to C6 cells adhered in wells of plates with 96 wells after trypsonation, as described above. The cellular concentration was 5.10^4 cells/ml^−1 (100 μl per well). The final concentration of the solutions of SIMO1 was comprised within the range of 0.5 to 50 μg/ml. Immediately after addition of the photosensitizer SIMO1, the plates of cells were held in complete darkness till the time of counting, except for a laser irradiation of the cells treated with PDT. The fresh medium containing FCS but free from photosensitizer was prepared before laser irradiation. […]
The optical density of each well of the microplates was then read at 570 nm by means of a Uniskan Titertack (Flow Laboratories, Puteaux, France). […]

Series [5] deals with C6 cells. The series can be described thus: Toxicity of SIMO1 on non-irradiated C6 cells (MTT count). It counts as cell-based. On the procedure: C6 cells were cultured in flasks of 25 cm^2 (Polylabo, Strasbourg, France) in an RPMI medium supplemented with 10% (V/V) of fetal calf serum (FCS), 100 units of penicillin mL^-1, […] of streptomycin and 2 mM of glutamine. The cells were replicated by dispersion culturing with 0.025% of trypsin in 0.02% ethylene-diaminotetracetic acid (EDTA) for a contact time of 2 minutes and returned to adhere at a dilution of 1:3, which maintain the cells in the exponential phase of growth. The cells were verified on a regular basis by contamination of the mycoplasms. The cells thus cultivated were subjected to a photodynamic treatment. Aliquots (11 μl) of the photosensitizing solution SIMO1 were added to C6 cells adhered in wells of plates with 96 wells after trypsonation, as described above. The cellular concentration was 5.10^4 cells/ml^-1 (100 μl per well). The final concentration of the solutions of SIMO1 was comprised within the range of 0.5 to 50 μg/ml. Immediately after addition of the photosensitizer SIMO1, the plates of cells were held in complete darkness till the time of counting, except for a laser irradiation of the cells treated with PDT. The fresh medium containing FCS but free from photosensitizer was prepared before laser irradiation. A laser with a diode at 650 nm was used. The power of the end of the fiber was adjusted, by using a device for measuring power (Coherent, France), at 500 mW. The light was transmitted to the target by an optical fiber at a distance of 20 mm so as to irradiate the cells in the wells 6 mm in diameter within a single field providing an illumination of all of the region. The time of exposure was 13 seconds per well at 650 nm, supplying an energy density of 20 J/cm^2. The cells were incubated with SIMO1 for 5 or 20 hours. For phototoxicity tests, the cells were washed and the medium was replaced immediately before laser irradiation. […] The optical density of each well of the microplates was then read at 570 nm by means of a […] […]

As for `Oc1cccc(-c2c3nc(c(-c4cccc(O)c4)c4ccc([nH]4)c(-c4cccc(O)c4)c4nc(c(-c5cccc(O)c5)c5ccc2[nH]5)CC4)C=C3)c1` [m-THPC, reference compound], in series [1], the “Incorporation at one hour of incubation (intracellular fluorescence)” value is recorded as “small incorporation” and the “Time of maximum intracellular concentration (fluorescence) after incubation” value was “increases to 6 hours”. Moreover, the “Activity on tumor growth, SIMO1 versus m-THPC” value in series [2] is reported as “comparable activity”. Also, the “Detection of photosensitive agent in tissues 144 hours after injection” value in series [3] (144 hours after injection) was “still detectable”.
In the case of “2,3-dihydro-5, 15-Bis(3,5-dihydroxy-1-phenyl)-prohyrin [SIMO1]”, in series [4] (5 hours of incubation), the “DL50, phototoxic treatment” value came out at 1.75 µg/mL. In series [4] (20 hours of incubation), the “DL50, phototoxic treatment” value turned out to be 0.45 µg/mL. For the same molecule, the “DL50, toxicity (non-irradiated)” value in series [5] amounted to 29 µg/mL. Further, the “SIMO1 toxicity (non-irradiated)” value in series [5] (C6 cells, 5 hours of incubation, no irradiation) was “no toxicity was detected”. Besides, the “Concentration short of which harmless in the absence of luminous irradiation” value in series [5] (C6 cells, no irradiation) is “about 20 μg/ml”. Further, in series [1], the “Incorporation at one hour of incubation (intracellular fluorescence)” value is on record as “high incorporation” and the “Time of maximum intracellular concentration (fluorescence) after incubation” value came to 3 h. Further, the “Activity on tumor growth, SIMO1 versus m-THPC” value in series [2] was “comparable activity”. For the same molecule, the “Retardation between intra-peritoneal injection and laser irradiation giving the most marked effects” value in series [2] (5 mg/kg intra-peritoneal, 300 J/cm^2, FIG. 4) worked out at 12 h. Further, in series [2] (HT-29 grafted nude mice, 5 mg/kg intra-peritoneal, 12 hours between injection and irradiation, 300 J/cm^2 at 652 nm, twelve days after treatment), the “Slowing of growth of the tumor” value was found to be 40%. In addition, in series [2] (all tested conditions: irradiation 2, 6, 12, 24, 48 hours after 5 mg/kg intra-peritoneal, 300 J/cm^2), the “Growth of the tumor compared to the untreated control group” value is “reduction of growth of the tumor”. For the same molecule, the “Detection of photosensitive agent in tissues after 48 hours” value in series [3] (48 hours after injection) is “no photosensitive agent was detected”. Also, in series [3] (muscle, skin and tumor, FIG. 6), the “Retention time in all the tissues compared to m-THPC” value is recorded as “shorter”.
